Test results: US9737583B2, “Composition for prevention or treatment of acute renal failure including herbal extract or fraction thereof as active ingredient” (KOREA INSTITUTE OF ORIENTAL MEDICINE, priority 2012, dated 2017)

Legend:
Type in all cases: cell-based
p53 = assay: Examination of p53 expression pattern (western blot); conditions: single treatment of cisplatin; FIG. 6
Method: Cells treated with Amomi Rotundus Fructus extract and/or cisplatin were harvested, and RIPA buffer was added thereto, followed by sonication for cell lysis. Centrifugation was performed at 15,000 rpm for 15 minutes, and the supernatant was obtained, and subjected to protein quantification by BCA assay. The protein was loaded at an amount of 20 μg/10 μl in each well, and 12% SDS-PAGE polyacrylamide gel electrophoresis was performed, and transferred to a nitrocellulose membrane. The membrane was blocked with 5% Skim milk-TBST, and then treated with primary antibody (anti-p53/dilution-1:300). p53 was detected with HRP conjugated anti-mouse IgG (dilution-1:5000) and immune reaction was visualized by ECL. The measurement results are shown as Mean±S.E.M. (standard error of mean) in FIG. 6. Data of the experimental results were analyzed using Microsoft Excel program, and post-test analysis using Bonferroni multiple comparison test was performed to investigate the differences between the groups. p<0.001 was considered statistically significant, and expressed as *; p<0.001 to compare with cisplatin.

renal cells [1] = assay: Measurement of GSH content; conditions: single treatment of cisplatin, culture 24 hours; FIGS. 5a to 5e
Method: Because GSH level is known as an index to evaluate a cell-protecting effect on drug-induced cellular injury, GSH level was measured to examine the cell-protecting effect of the Amomi Rotundus Fructus extract or the fraction thereof against cisplatin. The GSH levels were determined by monochlorobimane, and experiments for measuring GSH content were performed using the kidney tissues with reference to the conventional method of Fernandez-Checa and Kaplowitz. The number of cells, in which GSH is detectable, was determined by historical data and preliminary experiment, and 2×10^6 cells were seeded to each well of culture plate. After culture for 24 hours, the dilution fold of the final concentration of the drug determined as an active drug was considered and calculated, based on the results of MTT Assay and crystal violet Assay. […] Centrifugation was carried out at 10,000 rpm for 15 minutes, and then the supernatant was collected and used for BCA protein quantification. […] End-point fluorescence wavelength at Ex: 360 nm and Em: 460 nm was measured at S=70. Data of the experimental results were analyzed using Microsoft Excel program, and post-test analysis using Bonferroni multiple comparison test was performed to investigate the differences between the groups. p<0.001 was considered statistically significant.

renal cells [2] = assay: MTT assay, cell viability of renal cells with or without cisplatin
Method: To measure cell viability of renal cells by the Amomi Rotundus Fructus extract and the fraction thereof, MTT assay was performed. First, renal cells were seeded at a density of 1×10^4 cells per well of 96-well plate. After 24 hours, the cells were treated with each 50 μg thereof which was prepared by dilution at three final concentrations (50, 100, 200 μg/ml). After 2 hours, cisplatin was treated at a final concentration of 25 μg/ml, and cells were cultured for 24 hours. After 24 hours, 10 μl of the assay reagent of EZ-Cytox Cell Viability assay kit was added to each well using a Micro multi Pipette, taking care to introduce no bubbles, and reaction was allowed for 4 hours under basic culture conditions. Absorbance at 450 nm was measured. p<0.005 was considered statistically significant.

renal cells [3] = assay: Measurement of ROS generation (DCF-DA); conditions: single treatment, after 24 hours; based on 100% ROS generation of the control group; FIGS. 4a to 4e
Method: In order to measure antioxidant effect of the Amomi Rotundus Fructus extract and the fraction thereof in renal cells, ROS generation test was performed. First, renal cells were seeded at a density of 1×10^5 cells per well of 96-well plate. After 24 hours, the cells were pre-treated with 100 μg of the Amomi Rotundus Fructus extract. 2 hours after treatment, cisplatin was treated at a final concentration of 25 μg/ml, followed by culture for 24 hours. DCF-DA dissolved in PBS was treated in the dark according to the treatment concentration of DCF-DA and the reaction time which were determined by historical data and preliminary experiment, and reaction was allowed for 5 hours under basic culture conditions. At the time point of 0, 4, 8, 12, 16, 20, 24 hr, end-point fluorescence wavelength at Ex: 485 nm and Em: 528 nm was measured at S=50.

N.N.[Cl][Pt][Cl] [cisplatin, cis-diaminedichloroplatinum II]
p53 expression level (p53): remarkably increased | GSH content (renal cells [1]): reduced | cell viability (renal cells [2]; pre-treatment 50, 100, 200 μg/ml, cisplatin 25 μg/ml after 2 hours, culture 24 hours, based on 100% cell viability of the control group, FIGS. 2a to 2e): remarkably reduced | cell activity (renal cells [2]; single treatment, based on 100% cell activity of the control group, FIGS. 3a to 3e): ≤ 40% | ROS generation (renal cells [3]): ≥ 170%
